Measured values from patent US5468758A, “Crystalline forms of endo-2,3-dihydro-N-(8-methyl)-8-azabicyclo[3.2.1]oct-3-yl)-2-oxo-1H-benz imidazole-1-carboxamides” (Boehringer Ingelheim Italia S.p.A., priority 1992, dated 1995).
Structures can show the parent of a compound that is named as a salt.

What was measured:
Format in all cases: physicochemical
[1] = Accelerated stability tests in tablets and capsules
Excerpt: (§1) Drug stability in these final compositions may be measured in accelerated stability tests or in long term real time stability tests. In accelerated stability tests, the above pharmaceutical compositions are exposed at high temperatures at different degrees of relative humidity for a period of time. Such tests are considered to be indicative of the stability of the composition at normal conditions. In long term real time stability studies the final compositions are exposed to normal conditions of storage at ambient temperatures at different degrees of relative humidity.
(*)according to H. Leven Berger Pharm. Act. Helv. 50 (1975) 88-91 it is
equivalent to 2 years storage at room temperature. Tablets and capsules
are packaged in PVC/PVDC blister with aluminium foil.
(*)according to "Guidelines for stability studies for Human Drugs and
Biologics" (1987) (USA/FDA) it is equivalent to 2 years at room
temperature. Tablets and capsules are packaged in PVC/PVDC blister with […]

[2] = Long-term real time stability tests in tablets and capsules
Excerpt: as §1
Tablets and capsules are packaged in PVC/PVDC blister with aluminium foil

[3] = Moisture sorption/desorption studies (hygrostat, storage at different temperatures and relative humidity); design: water content (Table VI): unit not given here; details: for water content (Table VII): 11.2% RH, % on the weight of compound 1b
Procedure: The determination of the sorption isotherms was carried out in a hygrostat.
At suitable intervals, the sample was weighed by means of a sample balance. The atmosphere in the hygrostat and therefore around the sample of compound 1a (1b) and 2a (2b) was conditioned and kept by a saturated solutions of a suitable salt:
Na Cl saturated solution 75.3% RH/25° C. 74.8% RH/37° C.
KNO3 saturated solution 93.7% RH/25° C. 90.0% RH/37° C.
At the end of the experiment, after completing the hysteresis, that is the adsorption--desorption cycle of humidity, the compound was assayed for the title and degradation products by TLC and HPLC, the physical state by DSC and water content by TGA.

[4] = Milling studies (FRITSCH Pulverisette 14 Rotor Speed Mill)
Procedure: The milling process was performed by the FRITSCH Pulverisette 14 Rotor Speed Mill supplied with circular sieve stainless steel with trapezoidal 0.080 mm diameter openings. The samples were passed through the mill twice at 20.000 rpm motor speed. The sample is assayed for title and degradation products by TLC and HPLC, physical state by DSC, water content by TGA, particle size distribution by Mercury Instrusion Porosimetry. The mi 11ed compounds are formulated in capsules and tablets at very low dose level (0.5 mg) by direct mixing and direct compression manufacturing method, respectively.

[5] = Water loss on desiccation under vacuum; details: between room temperature and 60° C. under vacuum, most preferably 40° C., 0.1 mm Hg, 24 hours; in words
Procedure: Compounds 2a and 2b may be prepared by dissolving the compounds 1a and 1b, as free base, in a hot aqueous solvent, preferably a hot aqueous alkanol, by adding the required amount of gaseous hydrogen chloride, filtering the resulting solution and letting it cool to room temperature. In a preferred embodiment of the process according to the invention, compound 2a is prepared by using, as an hot aqueous alkanol, hot 85% aqueous ethanol. The crystals of compound 2a may be collected by vacuum filtration and are washed with a small amount of aqueous ethanol. In a preferred embodiment of the process according to the invention, compound 2b is prepared by using, as an hot aqueous alkanol, hot 95% aqueous isopropanol. The crystals of compound 2b may be collected by vacuum filtration and are washed with a small amount of aqueous isopropanol. […] Water content may be measured by usual techniques such as the Karl Fischer test. Alternatively, compounds 2a and 2b may be conveniently prepared by dissolving the anhydrous form of compounds 1a and 1b, as hydrochloride, in hot aqueous ethanol, preferably 85% ethanol (respectively in hot aqueous isopropanol, preferably 95% isopropanol) and allowing to cool the solution at room temperature; crystals of compound 2 a (respectively 2b), separated from the cooled solution, are collected by vacuum filtration and manipulated as previously described. […]

SMILES: CCn1c(=O)n(C(=O)N[C@H]2C[C@H]3CC[C@@H](C2)N3C)c2ccccc21 [Compound 2b, Endo-3-ethyl-2,3-dihydro-N-(8-methyl-8-azabicyclo-[3.2.1]oct-3-yl)-2-oxo-1H-benzimidazole-1-carboxamide, hydrochloride monohydrate]
- stability in tablets and capsules [1]: better stability
- stability in tablets and capsules [2]: better stability
- stability in condition of storage [3]: stable
- water content in conditions of extreme dryness ([3]; 11 RH, 37° C., in words): not affected
- water content (Table VII) ([3]; 37° C., 1 h): 5.00%
- water content (Table VII) ([3]; 37° C., 2 h): 4.85%
- water content (Table VII) ([3]; 37° C., 4 h): 4.80%
- water content (Table VII) ([3]; 37° C., 6 h): 4.70%
- water content (Table VII) ([3]; 37° C., 6 days): 4.70%
- water content (Table VII) ([3]; 37° C., time 0): 5.02%
- water content (Table VI) ([3]; 37° C., 49.2% RH, 2 h, hydrochloride monohydrate): 5.03
- water content (Table VI) ([3]; 37° C., 49.2% RH, 4 h, hydrochloride monohydrate): 5.04
- water content (Table VI) ([3]; 37° C., 49.2% RH, 6 h, hydrochloride monohydrate): 5.00
- water content (Table VI) ([3]; 37° C., 49.2% RH, 1 d, hydrochloride monohydrate): 5.00
- water content (Table VI) ([3]; 37° C., 49.2% RH, 4 d, hydrochloride monohydrate): 5.04
- water content (Table VI) ([3]; 37° C., 49.2% RH, 10 d, hydrochloride monohydrate): 4.95
- water content (Table VI) ([3]; 37° C., 49.2% RH, 30 d, hydrochloride monohydrate): 5.02
- water content (Table VI) ([3]; 37° C., 49.2% RH, time 0, hydrochloride monohydrate): 5.00
- water content (Table VI) ([3]; 37° C., 74.8% RH, 2 h, hydrochloride monohydrate): 5.05
- water content (Table VI) ([3]; 37° C., 74.8% RH, 4 h, hydrochloride monohydrate): 5.05
- water content (Table VI) ([3]; 37° C., 74.8% RH, 6 h, hydrochloride monohydrate): 5.07
- water content (Table VI) ([3]; 37° C., 74.8% RH, 1 d, hydrochloride monohydrate): 5.07
- water content (Table VI) ([3]; 37° C., 74.8% RH, 4 d, hydrochloride monohydrate): 5.07
- water content (Table VI) ([3]; 37° C., 74.8% RH, 10 d, hydrochloride monohydrate): 4.97
- water content (Table VI) ([3]; 37° C., 74.8% RH, 30 d, hydrochloride monohydrate): 5.00
- water content (Table VI) ([3]; 37° C., 74.8% RH, time 0, hydrochloride monohydrate): 5.00
- moisture absorption ([3]; different temperatures and relative humidity, in words, hydrochloride monohydrate): do not absorb moisture
- particle size reduction (milling efficiency) ([4]; Mercury Porosimetry Analysis, in words): same rank order
- humidity content ([4]; after milling, hydrochloride monohydrate): 4.8%
- loss of water content on desiccation [5]: without any appreciable loss of water content
